Results published in PMC12454639, “Direct disassembly of α-syn preformed fibrils into α-syn monomers by an all-D-peptide” (NPJ Parkinson's Disease, 2025).
Entries after “also recorded” stand apart in the source; their conditions may differ. Like-named read-outs stand apart in the source and are kept apart here. Square brackets hold non-standard residues; d marks the D form. Peptide text beside a SMILES is read from it.

Key:
[1] = tested on: α-syn monomer; test: De novo ThT aggregation assay (10 µM α-syn); assay type: biochemical; conditions: 37 °C, n = 5
Procedure: The Thioflavin T (ThT) assay is commonly used for the visualization of α-syn fibrilization, since the dye ThT is able to bind to the amyloidogenic cross-β-sheet proportions of fibril structures. Recombinant α-syn was thawed on ice and centrifuged for 30 min at 21,000 × g and 4 °C. The concentration of the supernatant was determined as described previously. Lyophilized D-peptides were thawed at RT for 1 h and dissolved in 500 µl PBS pH 7.4. After centrifugation for 30 min at 21,000 × g the supernatant concentration was determined by UV–vis using the corresponding extinction coefficient at A280. […] ThT fluorescence was monitored with bottom optics at λex = 448 nm and λem = 482 nm in a fluorescence plate reader with orbital averaging on 3 mm (Clariostar or Polarstar Optima, BMG labtech, GE). […]
ThT assay was used for different purposes. […] Lag-time and t½ were calculated as described previously. […]
ThT fluorescence progression was measured in a 96-well non-binding half-area plate (Corning, USA) with a FLUOStar platereader (BMG labtech, GE) at λex = 448 nm and λem = 482 nm. […] 10 µM α-syn monomer was incubated with 5, 10 and 20 µM peptide at 37 °C, adding one borosilicate glass bead per well (d = 3.0 mm, Hilgenberg, GE) with continuous orbital shaking at 300 rpm in between reads. […]
For each fit, x ½, lag-time and steady state response was determined in order to calculate their mean value for each condition. […]

[2] = tested on: PC12 cells; assay type: cell-based; conditions: for PC12 cell viability with PFF: 24 h
Procedure: PC12 cells (Leibniz Institute DSMZ, GE) were cultivated on collagen A-coated (Biochrom GmbH, GE) tissue culture flasks in RPMI 1640 medium supplemented with 5% fetal calf serum and 10% horse serum in a 95% humidified atmosphere with 5% CO2 at 37 °C. 10,000 cells per well in a volume of 100 µl were seeded on collagen A-coated 96-well plates (Thermo Fisher Scientific, USA) and were incubated for 24 h at 37 °C and 300 rpm in a thermo cycler. […] In addition, 15 µM of the peptides alone, cell media, buffer without peptides and 0.1% Triton X-100 (cytotoxic compound) served as controls. After further incubation in a 95% humidified atmosphere with 5% CO2 at 37 °C for 24 h, cell viability was measured using the Cell Proliferation Kit I (MTT) (Roche Applied Science, CH) according to the manufacturer’s protocol. The MTT formazan product was quantified by measuring the absorbance at 570 nm corrected by subtraction of the absorbance at 660 nm in a FLUOStar Optima plate reader (BMG Labtech, GE). All results were normalized to untreated cells grown in medium only. Test on significance was performed using one-way ANOVA with Bonferroni post hoc analysis (OriginPro 2020, OriginLab, USA; n = 4).
Test on significance was performed using one-way ANOVA with Bonferroni post hoc analysis: * […], *** p ≤ 0.01. Mean data are shown with ±SD (n = 4). While the cell viability was reduced by 50 % in the presence of 30 nM soluble small α-syn PFF alone, no toxic effect of the compounds on PC12 was observed. […] Thus, similar cell viability saving effects were found for SVD-1a using a 30-fold lower concentration.

Question: With CC[C@@H](C)[C@@H](NC(=O)[C@@H](Cc1c[nH]cn1)NC(=O)[C@@H](CCC(=O)O)NC(=O)[C@@H](CCC(N)=O)NC(=O)[C@@H](Cc1c[nH]c2ccccc12)NC(=O)[C@@H](Cc1ccc(O)cc1)NC(=O)[C@H](NC(=O)[C@@H](CCC(=O)O)NC(=O)[C@@H](Cc1c[nH]cn1)NC(=O)[C@H](NC(=O)[C@H]1CCCN1C(=O)[C@@H](CC(C)C)NC(=O)[C@H](N)CCCNC(=N)N)[C@H](C)O)[C@H](C)O)C(=O)N[C@H](Cc1c[nH]c2ccccc12)C(=O)N[C@H](Cc1c[nH]cn1)C(=O)N[C@H](C)C(=O)N[C@H](CCCNC(=N)N)C(=O)N[C@H](CCCNC(=N)N)C(=O)N[C@H](CCCNC(=N)N)C(=O)N[C@H](CCCNC(=N)N)C(=O)N[C@H](CCCNC(=N)N)C(N)=O [SVD-1a] (H-[dR][dL][dP][dT][dH][dE][dT][dY][dW][dQ][dE][dH][dI][dW][dH][dA][dR][dR][dR][dR][dR]-NH2) as the compound, how does the “inhibition of de novo aggregation at twofold molar excess” value ([1]; 10 µM α-syn, 20 µM peptide) read?
Answer: completely inhibited

Question: What about the “fold lower concentration for similar cell viability saving effect vs SVD-1” value ([2]; 0.5 µM SVD-1a vs 15 µM SVD-1) of the same compound?
Answer: 30 -fold

Question: What about the “PC12 cell viability with PFF” value ([2]; 0.5 µM) of the same compound?
Answer: 82%

Question: CC[C@@H](C)[C@@H](NC(=O)[C@@H](Cc1c[nH]cn1)NC(=O)[C@@H](CCC(=O)O)NC(=O)[C@@H](CCC(N)=O)NC(=O)[C@@H](Cc1c[nH]c2ccccc12)NC(=O)[C@@H](Cc1ccc(O)cc1)NC(=O)[C@H](NC(=O)[C@@H](CCC(=O)O)NC(=O)[C@@H](Cc1c[nH]cn1)NC(=O)[C@H](NC(=O)[C@H]1CCCN1C(=O)[C@@H](CCSC)NC(=O)[C@H](N)CCCCN)[C@H](C)O)[C@H](C)O)C(=O)N[C@H](Cc1c[nH]c2ccccc12)C(=O)N[C@H](Cc1c[nH]cn1)C(=O)N[C@H](C)C(N)=O [SVD-1] (H-[dK][dM][dP][dT][dH][dE][dT][dY][dW][dQ][dE][dH][dI][dW][dH][dA]-NH2) was tested. Which “inhibition of de novo aggregation” value ([1]; 10 µM α-syn, 5, 10 and 20 µM peptide, glass bead, continuous shaking 300 rpm) did it give?
Answer: concentration-dependent delay of aggregation onset as well as by a reduction of steady state levels; also recorded: inhibits primary nucleation of α-syn

Question: And the “PC12 cell viability with PFF” value ([2]; 15 µM)?
Answer: 89%
